From article PMC6891598, “Application of N-Dodecyl L-Peptide to Enhance Serum Stability while Maintaining Inhibitory Effects on Myometrial Contractions Ex Vivo” (Molecules, 2019)
Entries after “also recorded” stand apart in the source; their conditions may differ. Counter-ions that a name gives are not always drawn. Residues, ends and D or L forms follow the SMILES beside them.

Experiments:
[1] = serum stability study (mouse serum/plasma, MS/MS); assay type: in vitro ADME; settings: mouse plasma (method: serum), 37 °C, LC-MS/MS, internal standard L-4f
Procedure: Peptide L-4d was further examined for stability in serum and compared to L-PDC31. The two peptides were incubated at 37 °C in mouse plasma. Aliquots were removed at different time intervals and analyzed by mass spectrometry (MS/MS) to detect remaining amount of peptide (Figure 3).
Serum was […] and kept on ice throughout the procedure. Two blanks were prepared by adding 5 µL of DMSO to 95 µL of serum. These were incubated for 2 h and submitted to the same treatment as the other samples. Two series of vials containing 95 µL of serum were prepared and spiked with either 5 µL of L-PDC31 [0.4 mM] or L-4d [0.4 mM], and incubated for 120, 60, 30, 15, 10 and 5 min, respectively, after which 100 µL of 4% phosphoric acid was added. Two vials were also spiked with 5 µL L-PDC31 and L-4d, respectively, and immediately treated with phosphoric acid (time = 0 min). The vials were incubated for 5 min at 95 °C, cooled on ice for 2 min, treated with 600 µL of cold MeCN containing L-4f (0.02 mM) as internal standard, and incubated at –20 °C overnight. After the incubation period, the vials were vortexed for 2 min and centrifuged at 4 °C for 15 min. The supernatant was transferred into LC-MS vials and analyzed.
Results were expressed as: (AN/IS/AN0/IS0)∗100
AN and IS refer, respectively, to the analyte and internal standard MS signals. Both values are compared with initial injection at which time AN0 and IS0 were not incubated.

[2] = test system: murine myometrial tissue (PGF2α-induced contractions; FP); assay: ex vivo mouse myometrial tissue contraction assay (PGF2α-induced); parameters: species or system mouse (CD-1); settings: post-partum CD-1 mouse myometrial strips, Krebs buffer pH 7.4, 37 °C, 20 min pretreatment with peptide at two concentrations, then PGF2α; 4–6 experiments per group, means ± SEM, t-test, p < 0.05 vs vehicle
Procedure: All the peptides were initially tested in an ex vivo mouse myometrial tissue contraction assay. Contractile activity was measured on tissue that was harvested post-partum and treated with prostaglandin F2α (PGFα) alone (control) or in the presence of peptides L-4b-4g, L-7, and L-8. […] Mean tension induced by KCl (as a positive control) was not affected by L-4d.
Pregnant CD-1 mice (16-17 days gestation, term 19 days) were obtained from Charles River Inc. and used according to a protocol of the Animal Care Committee of Hôpital Sainte-Justine according to the principles of the Guide for the Care and Use of Experimental Animals of the Canadian Council on Animal Care. The animals were maintained on standard laboratory chow under a 12:12 light:dark cycle and allowed free access to chow and water.
The uterus from the CD-1 mouse was obtained from the animal immediately after term delivery under anesthesia (2.5% isoflurane). Briefly, a midline abdominal incision was made and the uterine horns were rapidly excised, cleansed carefully of the surrounding connective tissues, and removed. Longitudinal myometrial strips (2 to 3 mm wide and 1 cm long) were dissected free from the uterus and mounted isometrically in organ tissue baths. The initial tension was set at 2 g. The tissue baths contained 20 mL of Krebs buffer of the following composition (in mM): 118 NaCl, 4.7 KCl, 2.5 CaCl2, 0.9 MgSO4, 1 KH2PO4, 11.1 glucose, and 23 NaHCO3 (pH 7.4). The buffer was equilibrated with 95% oxygen/5% carbon dioxide at 37 °C. Isometric tension was measured by a force transducer and recorded by a BIOPAC data acquisition system (BIOPAC MP150, Montreal, PQ, Canada). Experiments were begun after 1 h equilibration. Mean tension of spontaneous contractions was measured using a BIOPAC digital polygraph system (AcqKnowledge); the same parameters were also determined after addition of PGF2α in the presence or the absence of a 20 min-pretreatment with different FP inhibitors. At the start of each experiment, mean tension of spontaneous myometrial contractions was considered as a reference response. Changes in mean tension (g) were expressed as percentages of the initial reference response (% of baseline).
At the start of each experiments, mean tension of spontaneous myometrial contractions was considered as a reference response. Increase in mean tension (%) was expressed as percentages of (X/Y)-100, where X is the change in mean tension (g) induced by PGF2α and Y is the initial reference response (g). Data are representative of 4–6 experiments per treated group. All results are expressed as means ± SEM and were compared by Independent t-tests. Statistical tests were performed with GraphPad Prism 4.3 software and p < 0.05 was considered statistically significant.

[3] = solubility in water (observation on handling); assay type: physicochemical; settings: qualitative observation on the purified, freeze-dried peptide
Procedure: Linear sequences of L- and D-PDC31 linked to 2-chlorotrityl resin (L- and D-1) were obtained by solid phase peptide synthesis using standard Fmoc/t-Bu protocols. Peptide resin L-1 was treated with the appropriate aldehyde 2 (Scheme 1). The imine resin was washed to remove excess aldehyde, and reductive amination was performed using sodium cyanoborohydride to provide secondary amine resin 3. Removal of the protecting groups and resin cleavage were achieved using a cocktail of 95:2.5:2.5 TFA:TES:H2O to provide N-alkyl- and N-PEG-grafted peptides 4, which were purified by RP-HPLC (Table 1). […] An inseparable mixture of mono- and bis-N-alkyl peptides was isolated by HPLC from reaction with aldehyde of shorter chain length.
Increased lipophilic character may promote peptide aggregation and decrease solubility in aqueous solvent. […] For biological assays, solubility issues were surmounted by forming salts and using small amounts of DMSO. The influence of their amphiphilic character during purification by RP-HPLC and double alkylation from the reductive amination sequence may account for the lower isolated yields of peptides 4, 7 and 8.

[4] = test system: prostaglandin F2α receptor (FP); settings: cited from earlier work
Procedure: The development of PDC31 originated from a library of sequences based on the second extracellular loop of FP. Short lead peptides were analyzed initially using in vitro and ex vivo analyses. […] Moreover, addition of the dodecyl chain enhanced plasma stability.

Molecule | effect on PGF2α-induced contractions (mean tension) of myometrial tissue [2] | solubility in water [3] | other results
CC[C@H](C)[C@H](N)C(=O)N[C@@H](CC(C)C)C(=O)NCC(=O)N[C@@H](Cc1c[nH]cn1)C(=O)N[C@@H](CCCNC(N)=O)C(=O)N[C@@H](CC(=O)O)C(=O)N[C@@H](Cc1ccc(O)cc1)C(=O)N[C@@H](CCCCN)C(=O)O [L-PDC31, H-Ile-Leu-Gly-His-Cit-Asp-Tyr-Lys-OH] (HELM PEPTIDE1{I.L.G.H.[Cit].D.Y.K}$$$$V2.0) | – | – | time to complete degradation in mouse plasma ([1]; 5 µL 0.4 mM peptide in 95 µL serum): ≤ 5 min; stability in mouse plasma, in words ([1]; incubation up to 2 hours): rapidly degraded in plasma
CC[C@H](C)[C@H](NCCOCCOCCOCCOC)C(=O)N[C@@H](CC(C)C)C(=O)NCC(=O)N[C@@H](Cc1c[nH]cn1)C(=O)N[C@@H](CCCNC(N)=O)C(=O)N[C@@H](CC(=O)O)C(=O)N[C@@H](Cc1ccc(O)cc1)C(=O)N[C@@H](CCCCN)C(=O)O [L-4g, N-2,7,8,11-tetraoxytetradecane-Ile-Leu-Gly-His-Cit-Asp-Tyr-Lys-OH] (HELM PEPTIDE1{[CC[C@H](C)[C@H](NCCOCCOCCOCCOC)C(=O)[*:2]].L.G.H.[Cit].D.Y.K}$$$$V2.0) | Neither PEGylated peptide L-4g nor N-farnesyl peptide L-7 exhibited activity | – | –
CCCCCCCCCCCCN[C@@H](C(=O)N[C@H](CC(C)C)C(=O)NCC(=O)N[C@H](Cc1c[nH]cn1)C(=O)N[C@H](CCCNC(N)=O)C(=O)N[C@H](CC(=O)O)C(=O)N[C@H](Cc1ccc(O)cc1)C(=O)N[C@H](CCCCN)C(=O)O)[C@H](C)CC [D-4d, N-Dodecyl-D-Ile-D-Leu-Gly-D-His-D-Cit-D-Asp-D-Tyr- D-Lys-OH] (HELM PEPTIDE1{[CCCCCCCCCCCCN[C@@H](C(=O)[*:2])[C@H](C)CC].[dL].G.[dH].[NC(=O)NCCC[C@@H](N[*:1])C(=O)[*:2]].[dD].[dY].[dK]}$$$$V2.0) | trends suggesting protective effects; also recorded: lower potency than the unmodified D-peptide, PDC-31 | – | –
CCCCCCCCCCCCCN[C@H](C(=O)N[C@@H](CC(C)C)C(=O)NCC(=O)N[C@@H](Cc1c[nH]cn1)C(=O)N[C@@H](CCCNC(N)=O)C(=O)N[C@@H](CC(=O)O)C(=O)N[C@@H](Cc1ccc(O)cc1)C(=O)N[C@@H](CCCCN)C(=O)O)[C@@H](C)CC [L-4e, N-Tridecanyl-Ile-Leu-Gly-His-Cit-Asp-Tyr-Lys-OH] (HELM PEPTIDE1{[CCCCCCCCCCCCCN[C@H](C(=O)[*:2])[C@@H](C)CC].L.G.H.[Cit].D.Y.K}$$$$V2.0) | – | Except for peptide 4e, bearing the 18-carbon alkyl chain, peptides 4 were all soluble in water | –
CC[C@H](C)[C@H](NCC=C(C)CCC=C(C)CCC=C(C)C)C(=O)N[C@@H](CC(C)C)C(=O)NCC(=O)N[C@@H](Cc1c[nH]cn1)C(=O)N[C@@H](CCCNC(N)=O)C(=O)N[C@@H](CC(=O)O)C(=O)N[C@@H](Cc1ccc(O)cc1)C(=O)N[C@@H](CCCCN)C(=O)O [L-7, N-Farnesyl-Ile-Leu-Gly-His-Cit-Asp-Tyr-Lys-OH] (HELM PEPTIDE1{[CC[C@H](C)[C@H](NCC=C(C)CCC=C(C)CCC=C(C)C)C(=O)[*:2]].L.G.H.[Cit].D.Y.K}$$$$V2.0) | Neither PEGylated peptide L-4g nor N-farnesyl peptide L-7 exhibited activity | soluble in water | –
CCCCCCCCCCCC(=O)N[C@H](C(=O)N[C@@H](CC(C)C)C(=O)NCC(=O)N[C@@H](Cc1c[nH]cn1)C(=O)N[C@@H](CCCNC(N)=O)C(=O)N[C@@H](CC(=O)O)C(=O)N[C@@H](Cc1ccc(O)cc1)C(=O)N[C@@H](CCCCN)C(=O)O)[C@@H](C)CC [L-8, N-Dodecanoyl-Ile-Leu-Gly-His-Cit-Asp-Tyr-Lys-OH] (HELM PEPTIDE1{[CCCCCCCCCCCC(=O)[*:2]].I.L.G.H.[Cit].D.Y.K}$$$$V2.0) | inactive | poor solubility; also recorded: aqueous solubility issues | –
N-Octadecanyl-Ile-Leu-Gly-His-Cit-Asp-Tyr-Lys-OH [L-4f] | trends suggesting protective effects; also recorded: not statistically significant | required a small amount of DMSO to completely dissolve; also recorded: aqueous solubility issues; also recorded: poorly soluble in water | –
CCCCCCCCCCCC(=O)N[C@H](C(=O)N[C@@H](CC(C)C)C(=O)NCC(=O)N[C@@H](Cc1c[nH]cn1)C(=O)N[C@@H](CCCNC(N)=O)C(=O)N[C@@H](CC(=O)O)C(=O)N[C@@H](Cc1ccc(O)cc1)C(=O)N[C@@H](CCCCN)C(=O)O)[C@@H](C)CC [L-8 HCl salt] (HELM PEPTIDE1{[CCCCCCCCCCCC(=O)[*:2]].I.L.G.H.[Cit].D.Y.K}$$$$V2.0) | – | – | solubility in water ([3]; listed as 8 hydrochloride salt): dissolved readily in water
CCCCCCN[C@H](C(=O)N[C@@H](CC(C)C)C(=O)NCC(=O)N[C@@H](Cc1c[nH]cn1)C(=O)N[C@@H](CCCNC(N)=O)C(=O)N[C@@H](CC(=O)O)C(=O)N[C@@H](Cc1ccc(O)cc1)C(=O)N[C@@H](CCCCN)C(=O)O)[C@@H](C)CC [L-4b, N-Hexanyl-Ile-Leu-Gly-His-Cit-Asp-Tyr-Lys-OH] (HELM PEPTIDE1{[CCCCCCN[C@H](C(=O)[*:2])[C@@H](C)CC].L.G.H.[Cit].D.Y.K}$$$$V2.0) | trends suggesting protective effects; also recorded: not statistically significant | – | –
H-ile-leu-Gly-his-arg-asp-tyr-lys-OH [PDC113] | – | – | activity as FP inhibitor, in words [4]: active FP inhibitor
